# From patent US6682892B2, “Method for treating herpes viruses” (priority 2000, dated 2004)
# Where two headings read alike, the source gives them in different places.
# Tests used:
# Assay type in all cases: cell-based
# [1] = test system: HCMV AD169-M1 (V823A, V824L); experiment: Plaque reduction assay, 4-oxo-DHQ resistant HCMV AD169-M1
# Description: (§1) Antiviral activity of compounds against herpesviruses such as HSV-1, HSV-2, or HCMV can be measured using plaque reduction assays. 0.1 ml of media containing approximately 50 PFU of virus is added to each well of a 24-well cell culture dish containing a confluent monolayer of cells (Vero cells for HSV-1 and HSV-2, HFF cells for HCMV). Compounds are dissolved in 100% DMSO and diluted in 100% DMSO as 200× stocks of the desired final drug concentration. Typically 5-6 two-fold dilutions are prepared for each compound. Dilutions of compounds are then added to media containing 0.8% CMC resulting in a final 1× drug concentration. After the virus-infected cells have incubated for 1 h at 37° C., the virus innoculum is removed and 1 ml of media containing 0.8% CMC and the various concentrations of compound is added to each well of the dish. The dish is incubated at 37° C. for approximately 2-3 days (HSV-1 and HSV-2) or 6-9 days (HCMV) to allow sufficient growth of virus to form plaques in the cell monolayer. Plaques can be observed and counted microscopically or by staining the cells with 0.1% crystal violet in 20% ethanol. […] Antiviral activity of a compound is expressed as the concentration of compound predicted to reduce the number of plaques in a well by 50% (IC50). The IC50 values are calculated by plotting the per cent inhibition vs. concentration of compound using EXCEL software for linear regression.
# A plasmid containing the wild-type HCMV polymerase gene is modified to contain the V823A or V823A and V824L mutations using a site-directed mutagenesis Kit (Stratagene Corp.) and following the manufactures's protocol. HFF cells are plated into T25 tissue culture flasks to achieve 80% confluency at the time of the transfection. Wild type HCMV AD 169 DNA and plasmid DNA containing the mutant HCMV polymerase gene are mixed at a ratio of 1:2 (2 ug of viral DNA to 4 ug of plasmid DNA). DNA's are transfected using superfect transfection reagent according to methods recommended by the manufacturer (Quiagen Inc.). Cells are harvested five days posttransfection, freeze-thawed to release virus and half of the sample is used to infect HFF cell monolayers. Cells are overlayed with media containing 20 uM 4-oxo-DHQ compound 2 (see FIG. 1). Serial passage is repeated seven times in the presence of 20 uM compound 2 and virus isolates are then plaque purified three times prior to preparation of viral stock.
# In order to isolate an HCMV resistant mutant marker rescue experiments are done. Plasmids containing the mutant polymerase genes are transfected into HFF cells along with wild type HCMV AD169 DNA. The resulting virus is then serially passaged in the presence of 20 uM compound 1 (see FIG. 1). A 4-oxo-DHQ resistant virus is isolated from marker rescue studies done with the HCMV polymerase gene containing mutations that result in the V823A, V824L amino acid changes, but not with the gene containing V823A change alone.
# HSV-1 KOS = experiment: Plaque reduction assay, HSV-1 KOS
# Description: as §1
# (§2) A panel of viruses consisting of four strains of HSV-1 (KOS, F, DJL, Patton) and three strains of HSV-2 (MS, 35D, 186) are tested in a plaque reduction assay against four different 4-oxo-DHQ compounds (#1, 2, 4, 5 as shown in FIG. 1), and one 4-oxo-DHTP compound (#3 as shown in FIG. 1) and against Acyclovir. The six drugs inhibited replication of the seven virus strains with IC50 values ranging from 2-10 μM (Table 1). In order to select for 4-oxo-DHQ resistant mutants, HSV-1 strains KOS, F, and DJL along with HSV-2 strains 186 and MS are serially passaged in the presence of 20 uM compound 1. Following the seventh passage, 4-oxo-DHQ resistant virus from each strain are plaque purified three times and high-titer stocks are made.
# HSV-2 MS-M1 (V826A) = experiment: Plaque reduction assay, 4-oxo-DHQ resistant HSV-2 MS-M1
# Description: as §1
# (§3) Vero cells are plated out at a density of 3.5×10^5 cells per well in a six well tissue culture plate. Cells are infected with HSV-1 KOS at a multiplicity of infection (moi) of 0.1 pfu/cell and 1 h post infection the cells are overlayed with 3 ml media containing 20 uM of a 4-oxo-DHQ. Cultures are incubated for 20 h at 37° C., freeze/thawed to release cell-associated virus, and 0.1 ml of culture is used to infect a new monolayer of Vero cells (one passage). Serial passage is repeated seven times in the presence of 20 uM drug. Virus isolates are then plaque purified three times prior to preparation of stocks. 4-oxo-DHQ resistant HSV-1 and HSV-2 may also be selected by the marker transfer method described below using wild-type HSV DNA and the corresponding mutant HSV polymerase gene.
# as §2
# HSV-1 KOS-M1 (V823A) = experiment: Plaque reduction assay, 4-oxo-DHQ resistant HSV-1 KOS-M1
# Description: as §1, §3, §2
# HSV-2 MS = experiment: Plaque reduction assay, HSV-2 MS
# Description: as §1, §2
# HCMV AD169 = experiment: Plaque reduction assay, HCMV AD169
# Description: as §1
# HSV-2 186 = experiment: Plaque reduction assay, HSV-2 186; conditions: Table 1, plaque reduction, Vero cells
# Description: as §1, §2
# HSV-2 35D = experiment: Plaque reduction assay, HSV-2 35D; conditions: Table 1, plaque reduction, Vero cells
# Description: as §1, §2
# HSV-1 DJL = experiment: Plaque reduction assay, HSV-1 DJL; conditions: Table 1, plaque reduction, Vero cells
# Description: as §1, §2
# HSV-1 Patton = experiment: Plaque reduction assay, HSV-1 Patton; conditions: Table 1, plaque reduction, Vero cells
# Description: as §1, §2
# HSV-1 F = experiment: Plaque reduction assay, HSV-1 F; conditions: Table 1, plaque reduction, Vero cells
# Description: as §1, §2
# [2] = Table 5, mutant selected for 4-oxo-DHQ resistance, read-out: Plaque Reduction Assay - IC50 (μM) HCMV AD169-M1
# [3] = Table 5, wild type strain, read-out: Plaque Reduction Assay - IC50 (μM) HSV-1 KOS
# [4] = Table 5, mutant selected for 4-oxo-DHQ resistance, read-out: Plaque Reduction Assay - IC50 (μM) HSV-2 MS-M1
# [5] = Table 5, mutant selected for 4-oxo-DHQ resistance, read-out: Plaque Reduction Assay - IC50 (μM) HSV-1 KOS-M1
# [6] = Table 5, wild type strain, read-out: Plaque Reduction Assay - IC50 (μM) HSV-2 MS
# [7] = Table 5, wild type strain, read-out: Plaque Reduction Assay - IC50 (μM) HCMV AD169
# [8] = Human betaherpesvirus 5, AD169, read-out: HCMV AD169 - M1 IC50 (μM)
# [9] = Human betaherpesvirus 5, AD169, Table 4, plaque reduction, wild type, read-out: HCMV AD169 IC50
# [10] = Human betaherpesvirus 5, AD169, Table 5, wild type strain, read-out: Plaque Reduction Assay - IC50 (μM) HCMV AD169
# [11] = Table 1, plaque reduction, Vero cells, read-out: IC50 (uM), HSV-1 KOS
# [12] = Table 1, plaque reduction, Vero cells, read-out: IC50 (uM), HSV-2 MS
SMILES,"IC50 [1, 2]",IC50 (HSV-1 KOS; [3]),IC50 (HSV-2 MS-M1 (V826A); [4]),IC50 (HSV-1 KOS-M1 (V823A); [5]),IC50 (HSV-2 MS; [6]),IC50 (HCMV AD169; [7]),further results
CN(Cc1cc2c(=O)c(C(=O)NCc3ccc(Cl)cc3)cn(C)c2s1)CC(O)c1ccccc1 (racemic) [Compound 8],1.1 µM,5.1 µM,> 50 µM,> 50 µM,2.3 µM,< 0.1 µM,–
"Nc1nc2c(ncn2COCCO)c(=O)[nH]1 [ACV, Acyclovir, reference compound]",–,–,–,–,–,–,"IC50 (HSV-2 186; Human alphaherpesvirus 2): > 10 µM; IC50 (HSV-1 KOS; Human alphaherpesvirus 1, Table 1, plaque reduction, Vero cells, read-out: IC50 (uM), HSV-1 KOS): 3.6 µM; IC50 (HSV-1 KOS; Human alphaherpesvirus 1, Table 5, wild type strain, read-out: Plaque Reduction Assay - IC50 (μM) HSV-1 KOS): 3.9 µM; IC50 (HSV-2 MS-M1 (V826A); Human alphaherpesvirus 2, read-out: Plaque Reduction Assay - IC50 (μM) HSV-2 MS-M1): 2.8 µM; IC50 (HSV-2 35D; Human alphaherpesvirus 2): 6 µM; IC50 (HSV-1 DJL; Human alphaherpesvirus 1): 1.8 µM; IC50 (HSV-1 KOS-M1 (V823A); Human alphaherpesvirus 1, read-out: Plaque Reduction Assay - IC50 (μM) HSV-1 KOS-M1): 4.4 µM; IC50 (HSV-1 Patton; Human alphaherpesvirus 1): 9.3 µM; IC50 (HSV-1 F; Human alphaherpesvirus 1): 1.3 µM; IC50 (HSV-2 MS; Human alphaherpesvirus 2, Table 1, plaque reduction, Vero cells, read-out: IC50 (uM), HSV-2 MS): 10 µM; IC50 (HSV-2 MS; Human alphaherpesvirus 2, Table 5, wild type strain, read-out: Plaque Reduction Assay - IC50 (μM) HSV-2 MS): 2.4 µM"
"Nc1ccn([C@@H]2O[C@H](CO)[C@@H](O)[C@@H]2O)c(=O)n1 [AraC, Arabinosylcytidine, reference compound]",–,0.2 µM,0.1 µM,–,0.2 µM,–,–
"Cc1cn([C@@H]2O[C@H](CO)[C@@H](O)[C@@H]2O)c(=O)[nH]c1=O [AraT, Arabinosylthymine, reference compound]",–,11.6 µM,3.6 µM,3.6 µM,6.6 µM,–,–
"Nc1ccn(C[C@@H](CO)OCP(=O)(O)O)c(=O)n1 [Cidofovir, reference compound]",–,–,–,–,–,–,"IC50 [1, 8]: 0.6 µM; increase in IC50 / change in sensitivity, HCMV AD169-M1 [1]: < 2 fold; IC50 (HCMV AD169; [9]): 0.3 µM; IC50 (HCMV AD169; [10]): 0.4 µM"
Cn1cc(C(=O)NCc2ccc(Cl)cc2)c(=O)c2cc(CN3CCOCC3)ccc21 [Compound 2],4 µM,3.3 µM,> 50 µM,> 50 µM,1.3 µM,0.4 µM,IC50 (HSV-2 186): 2.3 µM; IC50 (HSV-1 KOS; [11]): 3.8 µM; IC50 (HSV-2 35D): 5.4 µM; IC50 (HSV-1 DJL): 2.6 µM; IC50 (HSV-1 Patton): 5.3 µM; IC50 (HSV-1 F): 2.3 µM; IC50 (HSV-2 MS; [12]): 2.5 µM
O=C(NCc1ccc(Cl)cc1)c1cn2c3c(cc(CN4CCOCC4)cc3c1=O)OCC2 [Compound 4],–,4.2 µM,28.4 µM,> 50 µM,2.1 µM,0.6 µM,IC50 (HSV-2 186): 2.3 µM; IC50 (HSV-1 KOS; [11]): 3.2 µM; IC50 (HSV-2 35D): 3.2 µM; IC50 (HSV-1 DJL): 2.2 µM; IC50 (HSV-1 Patton): 4.3 µM; IC50 (HSV-1 F): 2.1 µM; IC50 (HSV-2 MS; [12]): 2.5 µM
O=C(NCc1ccc(Cl)cc1)c1cn(N2CCOCC2)c2ccc(CN3CCOCC3)cc2c1=O [Compound 5],–,–,–,–,–,–,IC50 (HSV-2 186): 4.2 µM; IC50 (HSV-1 KOS; [11]): 3.3 µM; IC50 (HSV-2 35D): 8.1 µM; IC50 (HSV-1 DJL): 2.7 µM; IC50 (HSV-1 Patton): 10 µM; IC50 (HSV-1 F): 2.6 µM; IC50 (HSV-2 MS; [12]): 2.5 µM
O=C(NCc1ccc(Cl)cc1)c1cnc2c(F)cccc2c1O [Compound 6],> 16 µM,24.6 µM,> 50 µM,> 50 µM,28.8 µM,5.1 µM,–
O=C(NCc1ccc(Cl)cc1)c1cnc2ccc(CCCO)cc2c1O [Compound 7],3.4 µM,6.5 µM,27.9 µM,> 50 µM,8.8 µM,0.3 µM,–
O=C(NCc1ccc(Cl)cc1)c1cn2c(CO)cc3cc(CN4CCOCC4)cc(c1=O)c32 [Compound 9],3.1 µM,1.9 µM,48.7 µM,> 50 µM,0.9 µM,< 0.1 µM,–
Cn1cc(C(=O)NCc2ccc(Br)cc2)c(=O)c2cc(CN3CCOCC3)sc21 [Compound 10],> 16 µM,15.8 µM,> 50 µM,> 50 µM,29.2 µM,1.1 µM,–
O=C(NCc1ccc(Cl)cc1)c1cn(C2COC2)c2ccc(CN3CCOCC3)cc2c1=O [Compound 11],3.9 µM,3.1 µM,> 50 µM,> 50 µM,3 µM,0.7 µM,–
Cn1cc(C(=O)NCc2ccc(Cl)cc2)c(=O)c2cc(CN3CCOCC3)cc(C#CCO)c21 [Compound 12],1.1 µM,1.3 µM,12.5 µM,> 50 µM,0.4 µM,0.2 µM,–
Cn1cc(C(=S)NCc2ccc(Cl)cc2)c(=O)c2cc(C#CCO)ccc21 [Compound 13],> 16 µM,5.5 µM,> 50 µM,< 25 µM,5.3 µM,2.7 µM,–
Cn1nc(C(=O)NCc2ccc(Cl)cc2)c(=O)c2cc(C#CCO)ccc21 [Compound 14],18.4 µM,28.4 µM,> 50 µM,> 50 µM,1.6 µM,0.9 µM,–
Cc1nc2c(cc1C#CCO)c(=O)c(C(=O)NCc1ccc(Cl)cc1)cn2C [Compound 15],7.7 µM,> 50 µM,> 50 µM,> 50 µM,5.9 µM,0.7 µM,–
"Nc1nc(O)c2ncn(COC(CO)CO)c2n1 [Ganciclovir, reference compound]",–,–,–,–,–,–,"IC50 [1, 8]: 1 µM; increase in IC50 / change in sensitivity, HCMV AD169-M1 [1]: < 2 fold; IC50 (HCMV AD169; [9]): 0.9 µM; IC50 (HCMV AD169; [10]): 0.8 µM"
"O=c1[nH]c(=O)n([C@H]2C[C@H](O)[C@@H](CO)O2)cc1I [Iudr, Iododeoxyuridine, reference compound]",–,1.1 µM,6.1 µM,0.8 µM,5 µM,–,–
"O=C(O)P(=O)(O)O [PFA, Foscarnet, reference compound]",–,–,–,–,–,–,"IC50 ([1]; Human betaherpesvirus 5, AD169, read-out: Plaque Reduction Assay - IC50 (μM) HCMV AD169-M1): < 20 µM; IC50 (HCMV AD169; [10]): 38 µM"
